From US10077248B2, “Form of imazapyr, a process for its preparation and use the same” (priority 2015, dated 2018) come the findings set out here.

The format of this data set is physicochemical. How it is done: Samples prepared in Examples 4, and 5 were stored at 54° C. for 1 month, 3 months and 6 months. The procedures are followed according to CIPAC MT 46.3. The concentration of imazapyr was tested at the end of each storage time by high pressure liquid chromatography (HPLC). The aggregation was measured by observation. The original concentration of imazapyr in each formulation was 25%.

For the molecule `CC(C)C1(C)N=C(c2ncccc2C(=O)O)NC1=O` (racemic) [crystalline modification I of imazapyr, 2-[(RS)-4-isopropyl-4-methyl-5-oxo-2-imidazolin-2-yl]nicotinic acid], the “storage stability / tendency of aggregation (in words)” value is “significant increase in its storage stability”.
On to `CC(C)C1(C)N=C(c2ncccc2C(=O)O)NC1=O` (racemic) [imazapyr in amorphous state, 2-[(RS)-4-isopropyl-4-methyl-5-oxo-2-imidazolin-2-yl]nicotinic acid], for which the “storage stability / tendency of aggregation (in words)” value is given as “high tendency of aggregation after a long storage time”.
